Reference: patent publication US8632824B2, “Process of obtaining thylakoids from photosynthetic organisms; plant fractions obtained from the process; pure thylakoids; and methods of use of thylakoids as ROS scavengers, photo-protectors, biosensors, biofilters and bioreactors” (Purgenesis Technologies, Inc., priority 2000, dated 2014)

What was measured:
[1] = Oxidation of PLPC micelles by peroxyl radicals from AAPH (absorbance at 234 nm); format: biochemical; conditions: FIG. 10
Description: The peroxidation of unsaturated lipid moieties (reactions 1-3) causes changes in their structure which eventually changes the physical properties of biological membranes. During the lipid peroxidation a conjugated diene group is formed (see LOOH in reaction 3) which has an UV/Vis absorption maximum at λmax=234 nm (ε=29,500 M^−1cm^−1) and this allows a quantification of the oxidation product formed. To obtain quantitative data the lipid peroxidation has to be initiated in a controlled manner (reaction 1). Often azo initiators, which produce a well-defined flux of ROO. in aqueous, aerated solution, are employed to study lipid oxidation in in vitro experiments. […]
Depending on possible reaction pathways of the antioxidant used the concentration time profiles of the detected LOOH display certain characteristics. By using an azo initiator as peroxyl radical source the amount of ROO. generated can be calculated and it is possible to determine the amount of lipids oxidized from the 234 nm absorption of the conjugated diene moiety. Also the amount of ROO. trapped during the lag phase can be determined.
From the duration of a possible lag phase during lipid peroxidation experiments (FIG. 9) the amount of “trapped” radicals can be calculated. […]
The reactions were monitored on a spectrophotometer at 37° C. for 10 h. […]

[2] = test system: IMR-32 cells; test: Estimation of apoptosis in IMR-32 cells by LDH assay; conditions: lysed cells = 100%
Description: For this experiment IMR-32 cells were grown in MEM medium without I-Glutamine, Phenolphtaleine and sodium pyruvate 3000 IMR-32 cell/well seeded in 96 well plates. […] After 1 hour the cells were washed with PBS two times and PBS was replaced with the growth medium. […] Two rows were left untreated as Control. The LDH activity was measured by Lactate Dehydrogenase Assay Kit provided by Sigma Diagnostics. The calorimetric assay measures the residual pyruvate (substrate of the enzymatic reaction). The basal activity present in the medium alone (in the absence of Cells) was considered 0% and was systematically subtracted from each experimental value. Control untreated cells in two rows were lysed with Triton X-100 (0.02%) and were treated as samples with 100% LDH release.
The assay used in the present study measures the residual level of enzyme substrate (pyruvate) using a calorimetric reaction. The more the substrate in the medium, the less enzyme released. Medium cells was taken as 0% enzyme activity released, and lysed cells in the medium as 100% released.

[3] = test system: IMR-32 cells; test: Protection of IMR-32 cells against TBHP oxidative stress (Hoechst DNA survival assay); format: cell-based, Human; conditions: for apoptosis produced by TBHP: 1000 cells per well, 1 hour
Description: Human neuroblastoma cell line (IMR-32), which is known to respond to oxidative stress by apoptosis (Kim et al, 1999), was used as an in vitro cell model. IMR32 cells are particularly sensitive to ROS and other toxicants because their p53 gene product is sequestered in the cytoplasm.
Tert-butyl hydroperoxide (TBHP) was used as an oxidative stress-inducing agent. […] This will allow comparisons if studies relative to more generalized oxidative stress conditions (like the ones found in many neurodegenerative diseases) have to be performed on different cells phenotypes.
Experiments were done using 1000 IMR-32 cells per well, for I hour of incubation. TBHP 50, 75 and 100 μM produced 78%, 87% and 87% apoptosis. TBHP 50 μM was selected to induce apoptosis in the other experiments.
Different dilutions were used on IMR-32 cells along with TBHP. A mother solution 1:10 was constituted, starting from the lyophilized thylakoid fraction, in propylene glycol. Unless otherwise specified, the mentioned dilutions are dilutions of this mother solution. […] The latter dilution was adopted for further experimentation.
IMR-32 Cells were grown in MEM supplemented with 10% FBS at 37° C. in a humidified atmosphere of 95% air and 5% CO2. The cells were seeded at a density of 1×10^4 cells/T25 Falcon tissue culture flasks and subcultured twice weekly. 48 h old cultures were used in all the experiments.
1000 or 3000 cells/well/100 uL were seeded in 96 well (Linbro flat bottom) plates in all the wells except well No. 12 of all the rows. After 24 h the cells were washed 2 times with 250 ul of PBS (pH 7.2) and 32 wells each were treated respectively with 100 and 200 uM solutions of TBHP (70% aqueous solution from Sigma Chemical Company) for 1 h. After 1 h the cells were gently washed 2 times with PBS before adding fresh growth medium. After 24 h the cell survival was assayed by a sensitive fluorimetric assay based on DNA binding fluorescent dye Hoechst by the following procedure. The test measures the total DNA of the population, a measurement which closely correlates with cell number. The medium was aspirated by gentle suction. Cells were rinsed with 250 ul PBS. PBS was aspirated with gentle suction. The rinse step was repeated. 100 uL lysis buffer (0.02% SDS in 1×SSC) was added in every well except the ones for DNA standard and Blank in row 12. The plate was incubated at 37° C. for 1 h with occasional swirling. 100 uL of 40 ug/mL of DNA was added to the DNA wells and 100 uL of 1×SSC buffer was added to the wells that were treated as Blank. 100 uL of 40 ug/ml of Hoechst 33258 in 1×SSC buffer was added to every well, and the plate was covered with Aluminum foil to protect it from light. The plate was agitated gently for 5 minutes and fluorescence was read at excitation wavelength 355 nm and emission wavelength 460 nm.
CT untreated=100%: survival after TBHP: 42%, dead cells: 100−42=58%; population size after PC: 88% difference from CT: 100−88=12% Expected population size after TBHP+PC: 100−58−12=30%. Recovered survival: 60% Survival gain in %: 60−30=30 Protection exerted: 30:60×100=50%
FRTS/1 was used as pre-treatment, co-treatment and post-treatment with the oxidative insult.
The <<Cell damages TBHP/CT>> represents the damages caused by the oxidant calculated as a percentage from the survival of untreated controls. […] The <<Expected survival>> is 100-total expected decrease. […] The <<protection exerted by PC>> is calculated as reported above.

Row | SMILES | oxidation kinetics of lipids compared to Trolox [1] | LDH release/TBHP ([2]; TBHP 25 uM alone) | LDH release/TBHP ([2]; TBHP 50 uM alone) | apoptosis produced by TBHP ([3]; TBHP 50 μM) | apoptosis produced by TBHP ([3]; TBHP 75 μM) | apoptosis produced by TBHP ([3]; TBHP 100 μM) | Cell damages TBHP/CT ([3]; co-treatment experiment, TBHP 25 uM alone) | Cell damages TBHP/CT ([3]; co-treatment experiment, TBHP 50 uM alone) | Cell damages TBHP/CT ([3]; post-treatment experiment, TBHP 25 uM alone) | Cell damages TBHP/CT ([3]; post-treatment experiment, TBHP 50 uM alone) | Cell damages TBHP/CT ([3]; pre-treatment experiment, TBHP 25 uM alone) | Cell damages TBHP/CT ([3]; pre-treatment experiment, TBHP 50 uM alone) | survival after TBHP ([3]; worked calculation example, CT untreated=100%)
1 | CC1=C(/C=C/C(C)=C/C=C/C(C)=C/C=C/C=C(C)/C=C/C=C(C)/C=C/C2=C(C)CCCC2(C)C)C(C)(C)CCC1 [β-carotene] | an antioxidant but with no lag phase | – | – | – | – | – | – | – | – | – | – | – | –
2 | CC(C)(C)OO [TBHP, Tert-butyl hydroperoxide] | – | 64% | 92% | 78% | 87% | 87% | 39% | 67% | 38% | 66% | 58% | 70% | 42%
